{
  "source": "the pKa sets of Baltruschat and Czodrowski (2020)",
  "data": [
    {"conditions": "basic group", "values": [
      {"smiles": "COC(=O)Nc1ncnc2nc[nH]c12", "pKa": 2.27},
      {"smiles": "Cn1c(=O)c2[nH]cnc2n(C)c1=O", "pKa": 8.64},
      {"smiles": "COc1ccc(C(O)CN)cc1", "note": "(stereo not drawn)", "pKa": 9.02},
      {"smiles": "[NH3+]CC(=O)N[C@@H](Cc1c[nH]cn1)C(=O)[O-]", "pKa": 6.77},
      {"smiles": "CCOC(=O)Nc1ncnc2nc[nH]c12", "pKa": 2.4},
      {"smiles": "COCCc1nc(C)c[nH]1", "pKa": 8.13},
      {"smiles": "CC(=O)N=S(C)C", "pKa": 3.16},
      {"smiles": "Nc1cc2ccccc2nn1", "pKa": 3.66},
      {"smiles": "N[C@H]1CCCC[C@@H]1C(=O)Oc1ccc([N+](=O)[O-])cc1", "pKa": 8.57},
      {"smiles": "Nc1ccccc1[NH3+]", "pKa": 1.3},
      {"smiles": "c1cn[nH]c1", "pKa": 2.61},
      {"smiles": "Cn1cncc1C[C@H]([NH3+])C(=O)[O-]", "pKa": 6.53},
      {"smiles": "Nc1nc(N(CCO)CCO)nc(N(CCO)CCO)n1", "pKa": 5.15},
      {"smiles": "Cc1cc(=O)n(C)cn1", "pKa": 2.1},
      {"smiles": "C1CCN(C2CC[NH2+]CC2)CC1", "pKa": 7.97},
      {"smiles": "[O-]c1nc2ccccc2[nH]1", "pKa": 11.9},
      {"smiles": "CCCCCCCCCCCCCCCCCc1c2ccccc2nc2ccccc12", "pKa": 5.5},
      {"smiles": "O=C1Nc2cncnc2N/C1=C1/Nc2ncncc2NC1=O", "pKa": 1},
      {"smiles": "C/C(N)=N/O", "pKa": 5.9},
      {"smiles": "OCCNc1ccccc1", "pKa": 4.09},
      {"smiles": "CCOC(=O)CCN(C)C", "pKa": 8.6},
      {"smiles": "C[NH+](C)CCNc1ccnc2cccc([N+](=O)[O-])c12", "pKa": 5.77},
      {"smiles": "[O-]c1ccnc2cccnc12", "pKa": 10},
      {"smiles": "COc1ccc(-c2cnc(-c3ccc(N)cc3)o2)cc1", "pKa": 3.22},
      {"smiles": "CNCCN(C)CCN", "pKa": 10.2},
      {"smiles": "Cc1ccccc1N(C)C", "pKa": 6},
      {"smiles": "CCOCCn1c(N2CCCN(CCCCn3cccn3)CC2)nc2ccccc21", "pKa": 8.5},
      {"smiles": "NNC(=O)c1ccc[nH+]c1", "pKa": 1.64},
      {"smiles": "NCC[n+]1ccc2c([N+](=O)[O-])cccc2c1", "pKa": 6.65},
      {"smiles": "OCC1=CCN2CC[C@@H](O)[C@@H]12", "pKa": 8.92},
      {"smiles": "CN1CCN(C)c2cccc3cccc1c23", "pKa": 4.62},
      {"smiles": "NC(=O)CCc1ccncc1", "pKa": 5.58},
      {"smiles": "CCN(C)CCOCCN(C)C", "pKa": 9.65},
      {"smiles": "CCCCCCCCCCCCCCCCCCN", "pKa": 10.6},
      {"smiles": "CCOC(=O)C[C@H](N)c1ccccc1", "pKa": 8.32},
      {"smiles": "N[C@@H]1CCC[C@@H]1O", "pKa": 9.7},
      {"smiles": "O=C([O-])[C@@H]1C[C@@H](O)CN1", "pKa": 9.64},
      {"smiles": "CN(C)/C=N/c1cccc(O)c1", "pKa": 7.88},
      {"smiles": "CN(C)Cc1ccc(NC(=O)/C=N/[O-])cc1", "pKa": 9.56},
      {"smiles": "O=C([O-])CSc1nc2cc3ccccc3cc2[nH]1", "pKa": 4.68},
      {"smiles": "c1nc(Cc2c[nH]c(Cc3nc(Cc4cnc[nH]4)c[nH]3)n2)c[nH]1", "pKa": 7.49},
      {"smiles": "CCSC(C)=N", "pKa": 6.9},
      {"smiles": "Cc1cc([O-])[n+](C)c([O-])n1", "pKa": 10.1},
      {"smiles": "Cc1cc(C)c2ccc3c(C)cc(C)nc3c2n1", "pKa": 6.5},
      {"smiles": "COc1ccc2c3c1O[C@H]1CCC[C@H]4[C@H](NCC[C@]314)[C@@H]2O", "pKa": 9.17},
      {"smiles": "NNC(=O)c1cccc(N)c1", "pKa": 3.75},
      {"smiles": "Oc1cccc2ccnnc12", "pKa": 2.72},
      {"smiles": "CN(CO)c1ccccc1", "pKa": 3.72},
      {"smiles": "N#Cc1ccc(CN)cc1", "pKa": 8.72},
      {"smiles": "Cn1cnc(=O)c(-c2ccccc2)c1", "pKa": 1.99},
      {"smiles": "CCN(CC)Cc1cn2nc(-c3ccccc3)cc(C)c2n1", "pKa": 8.79},
      {"smiles": "COc1ccccc1N", "pKa": 4.51},
      {"smiles": "[NH3+]NC(=O)c1ccncc1", "pKa": 1.85},
      {"smiles": "CCN(CC)Cc1ccccc1O", "pKa": 8.81},
      {"smiles": "CN(C)c1cccc2c(S(=O)(=O)NCC[NH+](C)C)cccc12", "pKa": 3.57},
      {"smiles": "OC(CN1CCCC1)C[NH+]1CCCC1", "pKa": 7.75},
      {"smiles": "CCCCCCCCCCCCCCCCCCCCCCN", "pKa": 10.6},
      {"smiles": "O=C(O)c1nccs1", "pKa": 2.57},
      {"smiles": "CN1CC(O[Si](C)(C)C)C1", "pKa": 9.1},
      {"smiles": "CN(C)CCCCC(=O)Oc1ccc([N+](=O)[O-])cc1", "pKa": 9.9},
      {"smiles": "OCCNCCO", "pKa": 9.04},
      {"smiles": "CCCCC[C@H](C)N", "pKa": 10.8},
      {"smiles": "c1nc2cc3c(cc2[nH]1)CCCC3", "pKa": 5.98},
      {"smiles": "O=C([O-])c1ccc2nc3ccccc3cc2c1", "pKa": 5.22},
      {"smiles": "CN[C@H]1C[C@H]1NC", "pKa": 8.73},
      {"smiles": "C[NH2+]CCN(C)CCN", "pKa": 9.68},
      {"smiles": "Oc1ccc2c(c1)ncc1ccccc12", "pKa": 4.82},
      {"smiles": "NCc1cc(N)cc(Cl)c1", "pKa": 9.54},
      {"smiles": "C[C@@H]1[C@@H](N)[C@H]1N", "pKa": 8.98},
      {"smiles": "CN(C)C[C@@H]1[C@@H](N)[C@]2(C)CC[C@@H]1C2(C)C", "pKa": 9.45},
      {"smiles": "CC[C@]12CCCN3CC[C@@]4(c5cccc(OC)c5N[C@H]4CC1)[C@@H]32", "pKa": 8.46},
      {"smiles": "COc1ccc(OC)c(N)c1", "pKa": 3.72},
      {"smiles": "CC(C)N/C=[NH+]/c1ccc(-c2cncn2C)cc1", "pKa": 6.51},
      {"smiles": "Nc1c2c(ncn2Cc2ccccc2)nc[n+]1[O-]", "pKa": 2.4},
      {"smiles": "NC(=O)C(N)Cc1c[nH]c2ccccc12", "note": "(stereo not drawn)", "pKa": 7.55},
      {"smiles": "NCC#CC#CCCC(=O)[O-]", "pKa": 8.26},
      {"smiles": "CCC1CN1", "note": "(stereo not drawn)", "pKa": 5.69},
      {"smiles": "CC[NH+](CC)CCCC(C)Nc1ccnc2ccc(OC)cc12", "note": "(stereo not drawn)", "pKa": 8.7},
      {"smiles": "Cc1ccccc1C(=NCCCCN(C)C)c1ccccc1C", "pKa": 8.8},
      {"smiles": "CC(C)(C)c1cc(N)cc(C(C)(C)C)c1", "pKa": 4.97},
      {"smiles": "CN(C)c1cccc2c(S(N)(=O)=O)cccc12", "pKa": 3.8},
      {"smiles": "CCNN", "pKa": 7.95},
      {"smiles": "CC(C)(C)c1ccc(N)cc1", "pKa": 4.95},
      {"smiles": "COc1cc(S(C)=O)ccc1-c1nc2ccnnc2[nH]1", "note": "(stereo not drawn)", "pKa": 3.63},
      {"smiles": "CCCC(=O)C(CCN1CCOCC1)(c1ccccc1)c1ccccc1", "pKa": 7.17},
      {"smiles": "Cc1cc2ccccc2nc1C", "pKa": 4.93},
      {"smiles": "Cc1cccc(/N=N/c2ccc(N)cc2)c1", "pKa": 2.88},
      {"smiles": "COc1ccc2[nH]c3c(C)nccc3c2c1", "pKa": 7.09}
    ]}
  ]
}
